According to article PMC11391541, “Target-Directed Dynamic Combinatorial Chemistry Affords Binders of Mycobacterium tuberculosis IspE” (ACS Omega, 2024):
Values after ≈ are worked out from the molar mass of the structure shown. Values joined by “and” are separate entries in the source; they are usually repeats but may differ in a detail not shown here. Equal entries are not always repeated.

Assays:
[1] = physchem; details: aqueous with cosolvent or surfactant or cyclodextrin, kinetic from dmso stock
[2] = target: T1, MtbIspE (Mycobacterium tuberculosis, UniProt P9WKG7); test: MtbIspE binding study via thermal shift assay; details: read-out: MtbIspE ΔTm at 20 μM
T1 sequence (P9WKG7 whole entry): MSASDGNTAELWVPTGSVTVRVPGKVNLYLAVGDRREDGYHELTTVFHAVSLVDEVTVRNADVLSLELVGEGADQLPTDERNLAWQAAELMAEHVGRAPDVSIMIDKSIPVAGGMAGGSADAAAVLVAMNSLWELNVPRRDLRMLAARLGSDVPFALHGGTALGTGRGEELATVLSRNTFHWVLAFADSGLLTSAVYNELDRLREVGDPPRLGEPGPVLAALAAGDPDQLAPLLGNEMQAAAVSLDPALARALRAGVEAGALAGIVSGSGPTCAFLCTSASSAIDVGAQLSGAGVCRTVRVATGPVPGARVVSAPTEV

[3] = target: T1, MtbIspE; test: target-directed dynamic combinatorial chemistry (tdDCC), amplification of acylhydrazones in protein-templated vs blank DCL (HPLC-MS/MS, UV 310 nm); type: binding; details: for Amplification factors (DCL-4): DCL-4, 24 h; for Amplification factors (DCL-4) / Amplification factors (DCL-3): 40 mol % MtbIspE; for Amplification factors (DCL-3): DCL-3, 24 h, I1 and K1 integrated as one cluster
Experimental: In this study, we used MtbIspE as target protein and the reversible reaction of hydrazides and aldehydes to form dynamic combinatorial libraries (DCLs) of acylhydrazones. […] To accelerate the reaction at neutral pH, aniline was used as nucleophilic catalyst activating the aldehydes.[2],[4],[19] We analyzed the protein’s effect on the DCLs by comparing HPLC-MS/MS data of blank vs protein-templated (PT) experiments. The experiments spanned 3 days, with periodic sampling (every 2 h, followed by two samples per day after 8 h). The addition of NaOH to raise the pH and halt the reactions ensured the sample composition was preserved for analysis.[19] Templated experiments were conducted in duplicate, and the protein was denatured and removed prior to HPLC-MS/MS analysis.
The tdDCC hits and thus potential MtbIspE binders are amplified in the PT experiment compared to the blank experiment. The first step in the analysis of DCLs is the determination of the equilibrium since the amplification factors need to be calculated when the concentration of products is stable. To determine the evolution of the possible products, it is important to measure the characteristic UV absorbance of the acylhydrazones linker (310 nm) during the HPLC-MS/MS run. The resulting UV peaks are assigned to each product using the MS data (Figures S3–S6). The sum of all peak areas is normalized to 100% in order to obtain the respective relative peak area (RPA) for each product. The RPA values represent relative concentrations, determined at each time point of the blank experiment until the values stabilize. […] However, the rest of the compounds are out of range, making a visual inspection difficult. […] The other three libraries behaved in the same way, reaching equilibrium within 24 h and also maintained stable concentrations beyond (Figures S7–S9). To determine the tdDCC hits, we compared the RPAs of the PT experiments to the blanks at 24 h and set a threshold of at least 50% increase in compound formation. In total, 11 acylhydrazones passed our criteria, with amplification factors ranging from […] to 15.5, qualifying them for resynthesis and further evaluation (Figure 3). During the analysis of chromatograms, challenges arose concerning product identification. Some compound peaks were not neatly separated, forcing us to consider them in clusters, others presented two peaks, likely due to isomers, and were considered separately in our evaluation. Lastly, some compounds were detected by MS, but their respective UV signal interfered with the injection peak or was too low for integration (<1%), both in the blank and PT experiments. Consequently, we excluded these compounds from the analysis (Figure S3–S6).
To a well of a 24-well plate, containing Tris buffer (pH 7.0) were added hydrazides (300 μM each, in DMSO), aldehydes (100 μM each, in DMSO), aniline (20 mM, in DMSO), the protein MtbIspE (25 or 40 μM in Tris buffer at pH 7.0), and an additional amount of DMSO to reach a final concentration of 5% in the DCL with 0.5 mL of end-volume. The DCL was allowed to mix on a plate shaker at room temperature and was frequently monitored via LCMS-MS. For analysis, 30 μL of the corresponding library was mixed with 42 μL acetonitrile and 3 μL of NaOH (1 M), the mixture was centrifuged, and the supernatant was used for the analysis. PT experiments were run in duplicates and the protein was omitted for the blank experiments.
High-resolution mass (HRMS) of final products was determined by HPLC-MS/MS using a Thermo Scientific Q Exactive Focus Orbitrap LC -MS/MS system. All compounds were analyzed for purity by LCMS on Acquity UPLC-SQD system from Waters with a gradient elution of Water (Formic acid 0.1%)/Acetonitrile on an HSS - T3 column (2.1 x 50 mm, Waters), 1.8 µm, at 30°C, PDA detection between 240 -320 nm, and MS detection by simultaneous ES+/ES- ionization in a mass range of 150 -800. The flow is set to 0.9 ml/min, and the […]
gradient time is 1.5 min. […]

[4] = solubility in M. tuberculosis 7H9 growth medium; type: physicochemical; details: Mtb 7H9 growth medium; for solubility: M. tuberculosis 7H9 growth medium, plasma or biological fluid, kinetic from dmso stock
Experimental: Prior to biological evaluation of the tdDCC hits, we tested their solubility in a standard buffer as well as in M. tuberculosis 7H9 growth medium. […] Regrettably, with 3.3 μM the least soluble compound is E1, making our most amplified and promising compound unsuitable for biological evaluation. We assessed the solubility in Mtb growth medium given that it is a complex, nutrient-rich environment with a distinct solubility profile. However, the trend continued, only seven hits are soluble at 8 μM or above, the remaining five compounds, including E1, were not eligible for antitubercular activity testing (Table 1).
Determination of in vitro anti-tubercular activity and solubility in 7H9 medium Anti-tubercular tests were performed as previously described .1 In brief, 7H9 complete medium (BD Difco; Becton Dickinson, Maryland,USA) supplemented with 10% OADC (BD), 0.2% glycerol, and 0.05% Tween80 as previously described ,3 was used to culture Mycobacterium tuberculosis (Mtb) strain H37Rv (ATCC 25618) carrying a mCherry -expressing plasmid (pCherry10 ).4 Cultures were harvested at mid-log phase and frozen in aliquots at – 80 °C. Prior to testing aliquots were thawed followed by centrifugation and the pellet was resuspended in 7H9 medium with 10% OADC (without glycerol and Tween80). This was further thoroughly resuspended by passing it through a syringe with a 26 -gauge needle to avoid clumping of the bacteria. 2×10^5 CFU (colony forming units) were then cultured in a total volume of 100 μl culture medium (triplicates) to test the non-precipitating compounds for the anti-tubercular activity at the concentrations indicated. For these assays, 96-well flat clear bottom black polystyrene microplates (Corning® CellBIND®, Merck, New York, USA) wer e used. Each plate had Rifampicin (at 1 μg/ml and 0.1 μg/ml) (National Reference Center, Borstel) as a reference compound. Plates were sealed with an air -permeable membrane (Porvair Sciences, Wrexham, UK) in a 37 °C incubator with mild agitation (TiMix5, Edmund Bühler, Germany). The activity of compounds was determined after 7 days by measuring the bacterial growth as relative light units (RLU) from the fluorescence intensity obtained at an excitation wavelength of 575 nm and an emission wavelength of 635 n m in a microplate reader (Synergy 2, BioTek Instruments, Vermont, USA). Two independent experiments (each in triplicates) were performed, and all values were normalized to untreated control sample (100%) in each experiment.
To obtain information regarding the toxicity of our compounds, their impact on the viability of human cells was investigated. HepG2 cells (2x10^4 cells per well) were seeded in 96 -well, flat-bottomed culture plates in 100 µL culture medium (DMEM containing 10% fetal calve serum, 1% penicillin -streptomycin). Twenty-four hours after seeding the cells, medium was removed and replaced by medium containing test compounds in a final DMSO concentration of 1%. Compounds were tested in duplicates at a single concentration or, for CC50 determination, at 8 concentrations that were prepared via 2 -fold serial dilutions in 1% DMSO/medium. Epirubicin and doxorubicin were used as positive controls in serial dilutions starting from 10 µM, and rifampicin was used as a negative control (at 100 µM). The living cell mass was determined 48 h after treatment with compounds by adding 0.1 volumes of 3 -(4,5-dimethylthiazol-2-yl)-2,5-diphenyltetrazolium bromide (MTT) solution (5 mg/mL sterile PBS) (Sigma, St. Louis, MO) to the wells. After incubating the cells for 30 min at 37 °C (atmosphere containing 5% CO2), medium was removed and MTT crystals were dissolved in 75 µL of a solution containing 10% SDS and 0.5% acetic acid in DMSO. The optical density (OD) of the samples was determined photometrically at 570 nm in a PHERAstar Omega plate reader (BMG labtech, Ortenberg, Germany). To obtain percent viability for each sample, their ODs were related to those of DMSO controls. […]

[5] = test system: EcTolC; test: microbe, parasite or virus in culture; type: cell-based; details: Escherichia coli, 18 h, LB medium, read-out: EcTolC %inh. At 50 μM
[6] = in vitro; details: human, HepG2 CC50, HepG2, 48 h, MTT
[7] = target: T1, MtbIspE; test: MtbIspE binding study via MicroScale Thermophoresis (MST); details: MST, 20 μM ligand, 200 nM MtbIspE, triplicate; qualitative
[8] = test system: MtbH37Rv; type: cell-based, Mycobacterium tuberculosis
[9] = test system: EcK12; test: E. coli growth inhibition, wild-type strain K12; type: cell-based, Escherichia coli; details: Escherichia coli, 18 h, LB medium, read-out: EcK12 %inh. At 50 μM

Compound	solubility at 5 min ([1]; solubility 5% DMSO in PBS) [µM]	ΔTm at 20 µM [2] [°C]	Amplification factors (DCL-4) [3]	solubility in 7H9 [4]	inhibition at 50 µM [5] [%]	CC50 [6] [µM]	MtbIspE binding at 20 μM [7]	MtbH37Rv MIC90 [8]	Amplification factors (DCL-3) [3]	solubility [4] [µM]	solubility at 5 min ([1]; solubility in PBS with 5% DMSO) [µM]	inhibition at 50 µM [9] [%]	amplification factor (DCL-1 at 24 h) ([3]; DCL-1, 24 h, 25 mol % MtbIspE)
COc1ccc(-c2cc(/C=N/NC(=O)c3nnn(-c4cccc(C(F)(F)F)c4)c3N)no2)cc1 [E6, (E)-5-Amino-N′-((5-(4-methoxyphenyl)isoxazol-3-yl)methylene)-1-(3-(trifluoromethyl)phenyl)-1H-1,2,3-triazole-4-carbohydrazide]	29 ± 10 (≈ 13.7 µg/mL)	0.7	2.3	insoluble	< 10	> 50	No	–	–	–	–	–	–
COc1ccc(NC(=O)c2cc(C(=O)N/N=C/c3cc(Cl)ccc3O)n(C)n2)cc1OC [H1, (E)-5-(2-(5-Chloro-2-hydroxybenzylidene)hydrazine-1-carbonyl)-N-(3,4-dimethoxyphenyl)-1-methyl-1H-pyrazole-3-carboxamide]	28 ± 6 (≈ 12.8 µg/mL)	< 0.3	–	–	< 10	32 ± 5	No	no inh. at max. sol.	7.8	32	–	–	–
CN1CCN(CC(=O)N/N=C/c2cc(Cl)ccc2O)CC1 [C1, (E)-N′-(5-Chloro-2-hydroxybenzylidene)-2-(4-methylpiperazin-1-yl)acetohydrazide]	> 800	< 0.3	–	–	17.1 ± 0.1	> 50	consistently demonstrated binding across all measurements and Yes	no inh. at max. sol.	–	16	~1000 (≈ 311 µg/mL)	< 10	–
O=C(N/N=C/c1cc(Cl)ccc1O)C12CC3CC(C1)CC(n1cnc(Cl)n1)(C3)C2 [I1, (1R,3S,5R,7S)-3-(3-Chloro-1H-1,2,4-triazol-1-yl)-N′-((Z)-5-chloro-2-hydroxybenzylidene)adamantane-1-carbohydrazide]	8 ± 4 (≈ 3.47 µg/mL)	–	–	–	33 ± 3	–	–	no inh. at max. sol.	2.0	64	–	< 10	–
Nc1c(C(=O)N/N=C/c2ccc(C(F)(F)F)cc2)nnn1-c1cccc(C(F)(F)F)c1 [E4, (E)-5-Amino-N′-(4-(trifluoromethyl)benzylidene)-1-(3-(trifluoromethyl)phenyl)-1H-1,2,3-triazole-4-carbohydrazide]	12 ± 6 (≈ 5.31 µg/mL)	–	0.7	insoluble	< 10	> 50	consistently demonstrated binding across all measurements and Yes	–	–	–	–	–	–
Nc1c(C(=O)N/N=C/c2cc(Cl)ccc2O)nnn1-c1cccc(C(F)(F)F)c1 [E1, (E)-5-Amino-N′-(5-chloro-2-hydroxybenzylidene)-1-(3-(trifluoromethyl)phenyl)-1H-1,2,3-triazole-4-carbohydrazide]	3.3 ± 1 (≈ 1.4 µg/mL)	–	–	insoluble	< 10	> 50	–	–	–	–	–	–	0.5
COc1ccc(-c2cc(/C=N/NC(=O)Cn3nc(C)cc3C)no2)cc1 [B6, (E)-2-(3,5-Dimethyl-1H-pyrazol-1-yl)-N′-((5-(4-methoxyphenyl)isoxazol-3-yl)methylene)acetohydrazide]	65 ± 35 (≈ 23 µg/mL)	< 0.3	0.9	–	< 10	> 50	bound in two out of three measurements and 2/3	no inh. at max. sol.	–	16	–	–	–
